Experimental data as given in patent US20240041877A1, “DOSAGE REGIME AND METHOD FOR TREATING PULMONARY ARTERIAL HYPERTENSION” (Altavant Sciences GmbH, priority 2019, published 2024).

Assay: Part 2 (MAD): plasma pharmacokinetics after BID oral KAR5585 for 14 days (incl. accumulation ratios and dose proportionality)
[1] = 100 mg (Cohort 2) to 400 mg (Cohort 4), 4-fold increase in dose, fed
[2] = 100 mg KAR5585 BID, fasted, Cohort 1
[3] = 100 mg KAR5585 BID, fasted, Part 2 Cohort 1, mean
[4] = 100 mg KAR5585 BID, fed, Cohort 2
[5] = 100 mg KAR5585 BID, fed, Part 2 Cohort 2, mean
[6] = KAR5585 100 mg BID fasted, Cohort 1, Day 1 AM, geo. mean
[7] = KAR5585 100 mg BID fasted, Cohort 1, Day 1 AM, mean
[8] = KAR5585 100 mg BID fasted, Cohort 1, Day 14/Day 1 accumulation ratio, geo. mean
[9] = KAR5585 100 mg BID fasted, Cohort 1, Day 14/Day 1 accumulation ratio, mean
[10] = KAR5585 100 mg BID fasted, Cohort 1, Day 14, geo. mean
[11] = KAR5585 100 mg BID fasted, Cohort 1, Day 14, mean
[12] = KAR5585 100 mg BID fed, Cohort 2, Day 1 AM, geo. mean
[13] = KAR5585 100 mg BID fed, Cohort 2, Day 1 AM, mean
[14] = KAR5585 100 mg BID fed, Cohort 2, Day 1 PM, geo. mean
[15] = KAR5585 100 mg BID fed, Cohort 2, Day 1 PM, mean
[16] = KAR5585 100 mg BID fed, Cohort 2, Day 7 AM, Day 7/Day 1 accumulation ratio, geo. mean
[17] = KAR5585 100 mg BID fed, Cohort 2, Day 7 AM, Day 7/Day 1 accumulation ratio, mean
[18] = KAR5585 100 mg BID fed, Cohort 2, Day 7 AM, geo. mean
[19] = KAR5585 100 mg BID fed, Cohort 2, Day 7 AM, mean
[20] = KAR5585 100 mg BID fed, Cohort 2, Day 7 PM, Day 7/Day 1 accumulation ratio, geo. mean
[21] = KAR5585 100 mg BID fed, Cohort 2, Day 7 PM, Day 7/Day 1 accumulation ratio, mean
[22] = KAR5585 100 mg BID fed, Cohort 2, Day 7 PM, geo. mean
[23] = KAR5585 100 mg BID fed, Cohort 2, Day 7 PM, mean
[24] = KAR5585 100 mg BID fed, Cohort 2, Day 14 AM, Day 14/Day 1 accumulation ratio, geo. mean
[25] = KAR5585 100 mg BID fed, Cohort 2, Day 14 AM, Day 14/Day 1 accumulation ratio, mean
[26] = KAR5585 100 mg BID fed, Cohort 2, Day 14 AM, geo. mean
[27] = KAR5585 100 mg BID fed, Cohort 2, Day 14 AM, mean
[28] = KAR5585 200 mg BID fed, Cohort 3, Day 1 AM, geo. mean
[29] = KAR5585 200 mg BID fed, Cohort 3, Day 1 AM, mean
[30] = KAR5585 200 mg BID fed, Cohort 3, Day 1 PM, geo. mean

Description: Food effect was to be evaluated in Part 1, Period 2.
Pharmacokinetic data were to be summarized descriptively.

**Q.** Which results are given for `Nc1nc(O[C@H](c2ccc(Cl)cc2-c2ccccc2)C(F)(F)F)cc(N2CCC3(CC2)CN[C@H](C(=O)O)C3)n1` [KAR5417, (S)-8-(2-amino-6-((R)-1-(5-chloro-[1,1T-biphenyl]-2-yl)-2,2,2-trifluoroeth-oxy)pyrimidin-4-yl)-2,8-diazaspiro[4.5]decane-3-carboxylic acid]?
**A.** fold increase in mean AUC0-12, Day 1 [1]: 7.0 fold; fold increase in mean AUC0-12, Day 14 [1]: 4.6 fold; fold increase in mean AUC0-24, Day 1 [1]: 6.45 fold; fold increase in mean AUC0-24, Day 14 [1]: 4.45 fold; fold increase in mean Cmax, Day 1 [1]: 6.9 fold; fold increase in mean Cmax, Day 14 [1]: ~4.5 fold; RAUC0-12 (accumulation ratio for AUC0-12), range Day 7/Day 1 and Day 14/Day 1 (100 mg KAR5585 BID): 2.19-2.57; half-life, Day 14 (100 mg KAR5585 BID, fasted): 18.8 h; peak mean concentration of KAR5417 relative to KAR5585, Day 1 [2]: approximately 7.25 fold; peak mean concentration of KAR5417 relative to KAR5585, Day 14 [2]: ~9.1 fold; time peak plasma concentrations were reached, Day 1 [2]: 2.0 to 6.0 h; AUC0-12, Day 1 [3]: 741 ng·h/mL; AUC0-24, Day 14 [3]: 1650 ng·h/mL; mean apparent elimination half-life, Day 14 (100 mg KAR5585 BID, fed): 19.6 h; Cmax (peak mean concentration), Day 1 [4]: 85.9 ng/mL; Cmax (peak mean concentration), Day 14 [4]: 168 ng/mL; mean Cmax plasma concentrations, range on all dosing days [4]: 85.9 to 168 ng/mL; AUC0-12, Day 1 [5]: 470 ng·h/mL; AUC0-24, Day 14 [5]: 1220 ng·h/mL; RAUC0-12 (accumulation ratio for AUC0-12), range Day 7/Day 1 and Day 14/Day 1 (200 mg KAR5585 BID): 1.09-1.34; mean apparent elimination half-life, Day 14 (200 mg KAR5585 BID, fed): 25.0 h; RAUC0-12 (accumulation ratio for AUC0-12), range Day 7/Day 1 and Day 14/Day 1 (400 mg KAR5585 BID): 1.65-2.38; mean apparent elimination half-life, Day 14 (400 mg KAR5585 BID, fed): 30.6 h; steady-state plasma levels achieved by (BID oral KAR5585 for 14 days): ≤ 7 days; AUC0-12 [6]: 643 ng·h/mL; AUC0-∞ [6]: 769 ng·h/mL; C12 [6]: 19.5 ng/mL; Cmax [6]: 101 ng/mL; Cmax/D [6]: 1.01 (ng/ml)/mg; t1/2 [6]: 3.37 h; AUC0-12 [7]: 741 ng·h/mL; AUC0-∞ [7]: 876 ng·h/mL; C12 [7]: 21.3 ng/mL; Cmax/D [7]: 1.21 (ng/ml)/mg; t1/2 [7]: 3.43 h; RAUC0-12 [8]: 1.64; RCmax [8]: 1.75; RAUC0-12 [9]: 1.83; RCmax [9]: 2.56; AUC0-12 [10]: 1150 ng·h/mL; AUC0-24 [10]: 1490 ng·h/mL; AUC0-24/D [10]: 14.9 (hr*ng/ml)/mg; AUC0-∞ [10]: 1960 ng·h/mL; C12 [10]: 42.0 ng/mL; C24 [10]: 18.1 ng/mL; Cmax [10]: 177 ng/mL; Cmax/D [10]: 1.77 (ng/ml)/mg; t1/2 [10]: 17.6 h; AUC0-12 [11]: 1280 ng·h/mL; AUC0-24 [11]: 1650 ng·h/mL; AUC0-24/D [11]: 16.5 (hr*ng/ml)/mg; AUC0-∞ [11]: 2220 ng·h/mL; C12 [11]: 46.3 ng/mL; Cmax/D [11]: 1.94 (ng/ml)/mg; t1/2 [11]: 18.8 h; AUC0-12 [12]: 428 ng·h/mL; AUC0-∞ [12]: 516 ng·h/mL; C12 [12]: 15.4 ng/mL; Cmax [12]: 79.2 ng/mL; Cmax/D [12]: 0.792 (ng/ml)/mg; t1/2 [12]: 4.16 h; AUC0-12 [13]: 470 ng·h/mL; AUC0-∞ [13]: 564 ng·h/mL; C12 [13]: 17.2 ng/mL; Cmax [13]: 85.9 ng/mL; Cmax/D [13]: 0.859 (ng/ml)/mg; t1/2 [13]: 4.18 h; AUC0-12 [14]: 714 ng·h/mL; AUC0-24/D [14]: 5.78 (hr*ng/ml)/mg; AUC0-∞ [14]: 1090 ng·h/mL; C12 [14]: 39.5 ng/mL; Cmax [14]: 119 ng/mL; Cmax/D [14]: 1.19 (ng/ml)/mg; t1/2 [14]: 6.95 h; AUC0-12 [15]: 748 ng·h/mL; AUC0-24 [15]: 1220 ng·h/mL; AUC0-24/D [15]: 6.09 (hr*ng/ml)/mg; AUC0-∞ [15]: 1140 ng·h/mL; C12 [15]: 43.1 ng/mL; Cmax [15]: 130 ng/mL; Cmax/D [15]: 1.3 (ng/ml)/mg; t1/2 [15]: 7.00 h; RAUC0-12 [16]: 2.45; RCmax [16]: 2.02; RAUC0-12 [17]: 2.57; RCmax [17]: 2.07; AUC0-12 [18]: 1050 ng·h/mL; AUC0-∞ [18]: 1380 ng·h/mL; C12 [18]: 44.3 ng/mL; Cmax/D [18]: 1.60 (ng/ml)/mg; t1/2 [18]: 5.24 h; AUC0-12 [19]: 1080 ng·h/mL; AUC0-∞ [19]: 1410 ng·h/mL; C12 [19]: 45.1 ng/mL; Cmax [19]: 168 ng/mL; Cmax/D [19]: 1.68 (ng/ml)/mg; t1/2 [19]: 5.31 h; RAUC0-12 [20]: 2.04; RCmax [20]: 1.34; RAUC0-12 [21]: 2.19; RCmax [21]: 1.43; AUC0-12 [22]: 875 ng·h/mL; AUC0-24 [22]: 1930 ng·h/mL; AUC0-24/D [22]: 9.64 (hr*ng/ml)/mg; AUC0-∞ [22]: 1700 ng·h/mL; C12 [22]: 61.4 ng/mL; Cmax [22]: 106 ng/mL; Cmax/D [22]: 1.06 (ng/ml)/mg; t1/2 [22]: 7.91 h; AUC0-12 [23]: 902 ng·h/mL; AUC0-24 [23]: 1990 ng·h/mL; AUC0-24/D [23]: 9.93 (hr*ng/ml)/mg; AUC0-∞ [23]: 1730 ng·h/mL; C12 [23]: 62.3 ng/mL; Cmax/D [23]: 1.12 (ng/ml)/mg; t1/2 [23]: 8.10 h; RAUC0-12 [24]: 2.09; RCmax [24]: 1.90; RAUC0-12 [25]: 2.23; RCmax [25]: 1.98; AUC0-12 [26]: 900 ng·h/mL; AUC0-24 [26]: 1220 ng·h/mL; AUC0-∞ [26]: 1780 ng·h/mL; C12 [26]: 35.4 ng/mL; C24 [26]: 19.3 ng/mL; Cmax [26]: 155 ng/mL; Cmax/D [26]: 1.55 (ng/ml)/mg; t1/2 [26]: 19.0 h; AUC0-12 [27]: 943 ng·h/mL; AUC0-24 [27]: 1270 ng·h/mL; AUC0-∞ [27]: 1830 ng·h/mL; C12 [27]: 36.4 ng/mL; C24 [27]: 19.6 ng/mL; Cmax [27]: 168 ng/mL; Cmax/D [27]: 1.68 (ng/ml)/mg; t1/2 [27]: 19.6 h; AUC0-12 [28]: 1620 ng·h/mL; AUC0-∞ [28]: 1980 ng·h/mL; C12 [28]: 56.6 ng/mL; Cmax [28]: 336 ng/mL; Cmax/D [28]: 1.68 (ng/ml)/mg; t1/2 [28]: 4.41 h; AUC0-12 [29]: 1700 ng·h/mL; C12 [29]: 60.7 ng/mL; Cmax [29]: 357 ng/mL; Cmax/D [29]: 1.79 (ng/ml)/mg; t1/2 [29]: 4.49 h; AUC0-12 [30]: 1910 ng·h/mL; AUC0-24 [30]: 3540 ng·h/mL; AUC0-24/D [30]: 8.85 (hr*ng/ml)/mg; AUC0-∞ [30]: 2640 ng·h/mL; C12 [30]: 102 ng/mL; Cmax [30]: 307 ng/mL; Cmax/D [30]: 1.54 (ng/ml)/mg
